# Where a SMILES comes first, the peptide text is derived from it. Bridges are numbered along the chain shown (N, C = ends). Roman numbers before positions name the chains, in order. [ ]: non-standard residue; d: D form. Thr(ol) = C[C@@H](O)[C@H](N)CO; Tle = CC(C)(C)[C@H](N)C(=O)O; NMeV = CN[C@H](C(=O)O)C(C)C; Hiv = CC(C)[C@H](O)C(=O)O; dDab = NCC[C@@H](N)C(=O)O; hSer = N[C@@H](CCO)C(=O)O; Dab = NCC[C@H](N)C(=O)O; Dap = NC[C@H](N)C(=O)O
# What was measured:
# [1] = system: human red blood cells (hRBC); experiment: Hemolysis; format: cell-based; conditions: red cells of human, 1 h, 200
# Outline: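 First, fresh human erythrocytes are washed in PBS; next, they are incubated at 20% (v/v) with compound at 200 μg/mL for 1 h at 37° C. Finally, centrifuged supernatants are diluted and OD540 is taken relative to the Triton X-100 lysis control.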
# [2] = system: male ICR mice; experiment: Tolerability in a mouse model (Maximum Tolerated Dose assay); format: in vivo; conditions: 2 × 30 mg/kg s.c. at a 12-hr interval, groups of 3
# Method: The tolerability of the peptides was tested in a mouse model at Pharmacology Discovery Services Taiwan Ltd, Taipei, Taiwan. The peptides were administered subcutaneously (s.c.) at 30 mg/kg or 40 mg/kg, respectively; twice at a 12-hr interval, for assessment of possible adverse effects in the Maximum Tolerated Dose (MTD) assay in male ICR (Institute of Cancer Research) mice. The peptides were dissolved in 0.9% NaCl at the concentrations either of 6 or 8 mg/mL, respectively, based on the free base molecular weight. The pH values of dosing solutions were adjusted to 6.5-7.6 before s.c. administration. A dosing volume at 5 mL/kg and a concentration of 6 or 8 mg/mL, respectively, was applied. The fresh prepared stock solution were stored at 4° C. during the study. Male ICR mice weighing 23±3 g were provided by BioLasco Taiwan (under Charles River Laboratories Licensee). Animals were acclimated for 3 days prior to use and were confirmed to be in good health. The peptides were administered s.c. at 30 mg/kg or 40 mg/kg, respectively, twice at a 12-hr interval, to groups of 3 ICR male mice and observed for the presence of acute toxic symptoms (mortality, convulsions, tremors, muscle relaxation, sedation, etc.) and autonomic effects (diarrhea, salivation, lacrimation, vasodilation, piloerection, etc.) during the first 30 min. The peptides were administered again at a 12-hr (two total doses) interval, following the first dose. The animals were then observed again for the presence of acute toxic symptoms and autonomic effects during the first 30 min.
# [3] = system: Escherichia coli ATCC 25922; format: cell-based; conditions: ATCC 25922
# Outline: (§1)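 MIC in μg/mL, read as absence of visible growth after 18-20 h incubation at 35° C, by standard CLSI microdilution. Peptides tested in two-fold serial dilution in cation-adjusted MH-II broth containing 0.002% (final) Polysorbate 80, against roughly 10^6 CFU/mL inocula.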
# [4] = system: Klebsiella pneumoniae SSI #3010; format: cell-based; conditions: SSI #3010
# Outline: as §1
# [5] = system: Escherichia coli 926415; format: cell-based; conditions: 926415
# Outline: as §1
# [6] = system: Acinetobacter baumannii 872842; format: cell-based; conditions: 872842
# Outline: as §1
# [7] = system: Enterobacter cloacae 848840; format: cell-based; conditions: 848840
# Outline: as §1
# [8] = system: Klebsiella pneumoniae 968733; format: cell-based; conditions: 968733
# Outline: as §1
# [9] = system: Pseudomonas aeruginosa ATCC 27853; format: cell-based; conditions: ATCC 27853
# Outline: as §1
# [10] = system: Acinetobacter baumannii DSM 30008; format: cell-based; conditions: DSM 30008
# Outline: as §1
Structure (SMILES),Hemolysis at 200 μg/mL [1] [%],Mortality and dose [2],MIC [3] [µg/mL],MIC [4] [µg/mL],MIC [5] [µg/mL],MIC [6] [µg/mL],MIC [7] [µg/mL],MIC [8] [µg/mL],MIC [9] [µg/mL],MIC [10] [µg/mL]
CC(=O)N[C@H](C(=O)N[C@H]1CSSC[C@@H](C(=O)N[C@@H](CO)C(N)=O)NC(=O)[C@H](C(C)C)NC(=O)[C@H](CO)NC(=O)[C@H](Cc2c[nH]c3ccccc23)NC(=O)[C@H](CCO)NC(=O)[C@@H](CCN)NC(=O)[C@H](CCC(=O)N[C@@H](CCN)C(=O)N[C@H](C(=O)N[C@@H](CCN)C(=O)N[C@H]2CCNC(=O)[C@H]([C@@H](C)O)NC(=O)[C@H](CCN)NC(=O)[C@H](CCN)NC(=O)[C@H](CC(C)C)NC(=O)[C@@H](CC(C)C)NC(=O)[C@H](CCN)NC2=O)[C@@H](C)O)NC(=O)[C@H](CCN)NC(=O)[C@H](Cc2ccc(O)cc2)NC1=O)C(C)C [Ex. 41] (I: Ac-VCY[Dab]E[dDab][hSer]WSVCS-NH2 / II: [Dab]T[Dab][Dab][Dab][dL]L[Dab][Dab]T; disulfide I:2-I:11; amide I:5-II:N; lactam II:4-II:C),<1,0/3 died at 2 × 30 mg/kg,0.0625,0.125,0.25,0.125,0.25,0.125,0.25,0.0625
CN[C@H](C(=O)N[C@H]1CSSC[C@@H](C(=O)N[C@@H](CO)C(=O)O)NC(=O)[C@H](C(C)C)NC(=O)[C@H](CO)NC(=O)[C@H](Cc2c[nH]c3ccccc23)NC(=O)[C@H](CCO)NC(=O)[C@@H](CCN)NC(=O)[C@H](CCC(=O)N[C@@H](CCN)C(=O)N[C@H](C(=O)N[C@@H](CCN)C(=O)N[C@H]2CCNC(=O)[C@H]([C@@H](C)O)NC(=O)[C@H](CCN)NC(=O)[C@H](CCN)NC(=O)[C@H](CC(C)C)NC(=O)[C@@H](CC(C)C)NC(=O)[C@H](CCN)NC2=O)[C@@H](C)O)NC(=O)[C@H](CCN)NC(=O)[C@H](Cc2ccc(O)cc2)NC1=O)C(C)C [Ex. 42] (I: H-[NMeV]CY[Dab]E[dDab][hSer]WSVCS-OH / II: [Dab]T[Dab][Dab][Dab][dL]L[Dab][Dab]T; disulfide I:2-I:11; amide I:5-II:N; lactam II:4-II:C; C-terminus assumed),<1,0/3 died at 2 × 30 mg/kg,0.125,0.25,0.5,1,4,2,0.25,0.5
CN[C@H](C(=O)N[C@H]1CSSC[C@@H](C(=O)N[C@@H](CO)C(N)=O)NC(=O)[C@H](C(C)C)NC(=O)[C@H](CO)NC(=O)[C@H](Cc2c[nH]c3ccccc23)NC(=O)[C@H](CCO)NC(=O)[C@@H](CCN)NC(=O)[C@H](CCC(=O)N[C@@H](CCN)C(=O)N[C@H](C(=O)N[C@@H](CCN)C(=O)N[C@H]2CCNC(=O)[C@H]([C@@H](C)O)NC(=O)[C@H](CCN)NC(=O)[C@H](CCN)NC(=O)[C@H](CC(C)C)NC(=O)[C@@H](CC(C)C)NC(=O)[C@H](CCN)NC2=O)[C@@H](C)O)NC(=O)[C@H](CCN)NC(=O)[C@H](Cc2ccc(O)cc2)NC1=O)C(C)C [Ex. 43] (I: H-[NMeV]CY[Dab]E[dDab][hSer]WSVCS-NH2 / II: [Dab]T[Dab][Dab][Dab][dL]L[Dab][Dab]T; disulfide I:2-I:11; amide I:5-II:N; lactam II:4-II:C),<1,0/3 died at 2 × 30 mg/kg,0.25,0.25,0.5,0.125,2,2,0.5,0.5
CC(C)C[C@@H]1NC(=O)[C@@H](CC(C)C)NC(=O)[C@H](CCN)NC(=O)[C@@H](NC(=O)[C@H](CCN)NC(=O)[C@@H](NC(=O)[C@H](CCN)NC(=O)CC[C@@H]2NC(=O)[C@H](CN)NC(=O)[C@H](Cc3ccc(O)cc3)NC(=O)[C@@H](NC(=O)[C@@H](O)C(C)C)CSSC[C@@H](C(=O)N[C@H](CO)[C@@H](C)O)NC(=O)[C@H](C(C)(C)C)NC(=O)[C@H](CO)NC(=O)[C@H](Cc3c[nH]c4ccccc34)NC(=O)[C@H]([C@@H](C)O)NC(=O)[C@@H](CCN)NC2=O)[C@@H](C)O)CCNC(=O)[C@H]([C@@H](C)O)NC(=O)[C@H](CCN)NC(=O)[C@H](CCN)NC1=O [Ex. 58] (I: H-[Hiv]CY[Dap]E[dDab]TWS[Tle]C[Thr(ol)] / II: [Dab]T[Dab][Dab][Dab][dL]L[Dab][Dab]T; disulfide I:2-I:11; amide I:5-II:N; lactam II:4-II:C),1,0/3 died at 2 × 30 mg/kg,0.0625,0.125,0.125,0.0625,0.125,0.25,0.25,0.0625
CC(=O)N[C@H](C(=O)N[C@H]1CSSC[C@@H](C(=O)N[C@@H](Cc2ccc(O)cc2)C(N)=O)NC(=O)[C@H](C(C)C)NC(=O)[C@H](CO)NC(=O)[C@H](Cc2c[nH]c3ccccc23)NC(=O)[C@H](CCO)NC(=O)[C@@H](CCN)NC(=O)[C@H](CCC(=O)N[C@@H](CCN)C(=O)N[C@H](C(=O)N[C@@H](CCN)C(=O)N[C@H]2CCNC(=O)[C@H]([C@@H](C)O)NC(=O)[C@H](CCN)NC(=O)[C@H](CCN)NC(=O)[C@H](CC(C)C)NC(=O)[C@@H](CC(C)C)NC(=O)[C@H](CCN)NC2=O)[C@@H](C)O)NC(=O)[C@H](CCN)NC(=O)[C@H](CO)NC1=O)C(C)C [Ex. 65] (I: Ac-VCS[Dab]E[dDab][hSer]WSVCY-NH2 / II: [Dab]T[Dab][Dab][Dab][dL]L[Dab][Dab]T; disulfide I:2-I:11; amide I:5-II:N; lactam II:4-II:C),<1,0/3 died at 2 × 30 mg/kg,0.125,0.25,0.5,0.25,4,0.5,0.125,0.125
CN[C@H](C(=O)N[C@H]1CSSC[C@@H](C(N)=O)NC(=O)[C@H](C(C)C)NC(=O)[C@H](CCO)NC(=O)[C@H](Cc2c[nH]c3ccccc23)NC(=O)[C@H](CCO)NC(=O)[C@@H](CCN)NC(=O)[C@H](CCC(=O)N[C@@H](CCN)C(=O)N[C@H](C(=O)N[C@@H](CCN)C(=O)N[C@H]2CCNC(=O)[C@H]([C@@H](C)O)NC(=O)[C@H](CCN)NC(=O)[C@H](CCN)NC(=O)[C@H](CC(C)C)NC(=O)[C@@H](CC(C)C)NC(=O)[C@H](CCN)NC2=O)[C@@H](C)O)NC(=O)[C@H](CCN)NC(=O)[C@H](Cc2ccc(O)cc2)NC1=O)C(C)C [Example 57] (I: H-[NMeV]CY[Dab]E[dDab][hSer]W[hSer]VC-NH2 / II: [Dab]T[Dab][Dab][Dab][dL]L[Dab][Dab]T; disulfide I:2-I:11; amide I:5-II:N; lactam II:4-II:C),3,,0.125,0.25,0.5,0.5,0.25,4,0.25,0.125

# Source: patent publication US11629171B2, “Beta-hairpin peptidomimetics” (POLYPHOR AG, priority 2017, dated 2023)
